System: HVA calcium channel currents in DRG neuronal cells
Format: cell-based, rat

COC(=O)C1=C(C)NC(C)=C(C(=O)OC)C1c1ccccc1[N+](=O)[O-] [Nifedipine]
current after loading: −734.31 pA
current before loading: −1471.35 pA
inhibition rate (10 µM): 50.09%

Reference: patent US10556927B2 (priority 2014, dated 2020)
